Measured values: PubChem BioAssay (NCI)
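A five-concentration, 48-hour dose response in 96-well plates underlies each endpoint, interpolated linearly between surrounding concentrations. TGI: concentration producing complete growth inhibition.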

What was measured:
Test in all cases: growth of human tumour cells (NCI), 48 h
A498 renal = test system: A498 renal
NCI-H226 lung = test system: NCI-H226 lung
UO-31 renal = test system: UO-31 renal
HCC-2998 colon = test system: HCC-2998 colon
OVCAR-3 ovarian = test system: OVCAR-3 ovarian
SF-539 CNS = test system: SF-539 CNS
RXF 393 renal = test system: RXF 393 renal
KM12 colon = test system: KM12 colon
M14 melanoma = test system: M14 melanoma
COLO 205 colon = test system: COLO 205 colon
U251 CNS = test system: U251 CNS
EKVX NSCLC = test system: EKVX NSCLC
SN12C renal = test system: SN12C renal
HL-60(TB) leukemia = test system: HL-60(TB) leukemia

Row | Structure (SMILES) | TGI (A498 renal) | TGI (NCI-H226 lung) | TGI (UO-31 renal) | TGI (HCC-2998 colon) | TGI (OVCAR-3 ovarian) | TGI (SF-539 CNS) | TGI (RXF 393 renal) | TGI (KM12 colon) | TGI (M14 melanoma) | TGI (COLO 205 colon) | TGI (U251 CNS) | TGI (EKVX NSCLC) | TGI (SN12C renal) | TGI (HL-60(TB) leukemia)
1 | c1ccc(Nc2nn3c(CCCCCCCCc4nnc5sc(Nc6ccccc6)nn45)nnc3s2)cc1 | > 100 µM | > 100 µM | 69.9 µM | > 100 µM | > 100 µM | > 100 µM | > 100 µM | > 100 µM | 35.2 µM | 42.8 µM | > 100 µM | > 100 µM | > 100 µM | –
2 | CCOC1NC(=O)Oc2cc3ccccc3cc21 (stereo unspecified) | – | > 100 µM | > 100 µM | > 100 µM | > 100 µM | > 100 µM | > 100 µM | > 100 µM | > 100 µM | > 100 µM | > 100 µM | > 100 µM | > 100 µM | > 100 µM
3 | C=CCOC(OCC=C)/C(Br)=C/C | > 100 µM | > 100 µM | > 100 µM | > 100 µM | > 100 µM | – | > 100 µM | > 100 µM | > 100 µM | 52.9 µM | > 100 µM | > 100 µM | > 100 µM | > 100 µM
4 | Nc1ccc2ccc(N3CCNCC3)nc2n1 | – | 85.2 µM | > 100 µM | > 100 µM | > 100 µM | > 100 µM | – | > 100 µM | > 100 µM | > 100 µM | > 100 µM | > 100 µM | > 100 µM | > 100 µM
5 | OC12c3ccccc3C1CCCCCCCCCC21OCCO1 (stereo unspecified) | > 100 µM | > 100 µM | > 100 µM | > 100 µM | > 100 µM | > 100 µM | > 100 µM | > 100 µM | > 100 µM | > 100 µM | > 100 µM | – | > 100 µM | –
6 | Cc1ccc(S(=O)(=O)C2=c3nc4ccccc4cc3=C3C(=O)c4ccccc4C(=O)C32)cc1 (stereo unspecified) | > 100 µM | > 100 µM | > 100 µM | > 100 µM | > 100 µM | > 100 µM | – | > 100 µM | > 100 µM | > 100 µM | > 100 µM | > 100 µM | > 100 µM | > 100 µM
7 | O=C(c1cccs1)N1CCCN(C(=O)c2cccs2)C1=S | > 100 µM | > 100 µM | > 100 µM | – | > 100 µM | > 100 µM | > 100 µM | > 100 µM | > 100 µM | > 100 µM | > 100 µM | > 100 µM | > 100 µM | > 100 µM
8 | COc1ccc2oc(-c3ccc(OC)c(OC)c3OC)cc(=O)c2c1 | – | 81.1 µM | – | > 100 µM | > 100 µM | > 100 µM | 93.8 µM | – | > 100 µM | > 100 µM | – | > 100 µM | > 100 µM | 55 µM
9 | Cc1cc2n[n+]3[n-]cc(-c4ccccc4)n3c2cc1[N+](=O)[O-] | > 100 µM | – | > 100 µM | – | > 100 µM | > 100 µM | > 100 µM | > 100 µM | – | > 100 µM | > 100 µM | > 100 µM | – | > 100 µM
10 | c1ccc(SC23C4C5C6C4C2C6C53)nc1 (stereo unspecified) | > 100 µM | > 100 µM | > 100 µM | > 100 µM | > 100 µM | > 100 µM | – | > 100 µM | > 100 µM | > 100 µM | > 100 µM | > 100 µM | > 100 µM | –
11 | COc1cc(Cc2cnc(N)nc2N)cc(OC)c1OCCCNc1ccc([N+](=O)[O-])cc1 | 39.3 µM | 28.4 µM | 26.5 µM | 31.4 µM | 28.1 µM | 26.1 µM | 25.2 µM | 32.2 µM | 19.2 µM | 27.4 µM | 29.2 µM | 32 µM | 41.4 µM | –
12 | COC(=O)C1=C(O)CCCC(C2CCCCC(=O)C2C(=O)OC)=C1 (stereo unspecified) | 58.7 µM | > 100 µM | > 100 µM | 91.6 µM | > 100 µM | > 100 µM | > 100 µM | > 100 µM | > 100 µM | > 100 µM | > 100 µM | > 100 µM | > 100 µM | –
13 | CN1CCc2c(sc3ncn(Nc4ccc(Cl)cc4)c(=N)c23)C1 | > 100 µM | > 100 µM | – | – | > 100 µM | > 100 µM | > 100 µM | > 100 µM | > 100 µM | > 100 µM | > 100 µM | > 100 µM | > 100 µM | > 100 µM
14 | O=C1CSC(c2ccc([N+](=O)[O-])cc2)N1c1ccc(-c2ccc(-n3c(-c4ccccc4)nc4ccccc4c3=O)cc2)cc1 (stereo unspecified) | > 100 µM | > 100 µM | > 100 µM | > 100 µM | > 100 µM | > 100 µM | – | > 100 µM | > 100 µM | > 100 µM | > 100 µM | > 100 µM | > 100 µM | > 100 µM
15 | CCN(CC)CC1CN=C(N)O1 (stereo unspecified) | > 100 µM | > 100 µM | > 100 µM | > 100 µM | > 100 µM | > 100 µM | > 100 µM | > 100 µM | > 100 µM | > 100 µM | > 100 µM | > 100 µM | > 100 µM | –
16 | Cc1nc2ccc(F)cc2c(Cl)c1CCCl | > 100 µM | > 100 µM | > 100 µM | 84.9 µM | > 100 µM | > 100 µM | 79.9 µM | > 100 µM | – | 47.2 µM | > 100 µM | > 100 µM | – | 35 µM
17 | COc1ccc(-c2ncn(C[Si](C)(C)C)c2-c2ccc(OC)cc2)cc1 | – | 24.5 µM | 10 µM | 7.34 µM | – | 27.5 µM | 21.1 µM | 19.9 µM | 14.8 µM | 11.7 µM | 20.7 µM | 12.1 µM | 24.3 µM | 4.57 µM
18 | CCC(CC)(CO)CNc1cc(Cl)nc(N)n1 | > 100 µM | > 100 µM | > 100 µM | – | > 100 µM | > 100 µM | > 100 µM | > 100 µM | – | > 100 µM | > 100 µM | > 100 µM | > 100 µM | > 100 µM
